The values below come from patent publication US7879866B2, “Inhibition of the activity of the capsaicin receptor in the treatment of obesity or obesity-related diseases and disorders” (Dorte Xenia Gram, priority 2004, dated 2011).

The test system of assay [1] is iNOS. Put plainly: Relative gene expression of iNOS in mesenteric adipose tissue (quantitative RT-PCR). Format: in vivo, rat. Conditions: 9 month old Zucker obese rats; 1 hour after BCTC 15 mg/kg po; vehicle as calibrator, 36B4 internal standard. As to the method:
(§1) At 9 months of age, the same rats were tested re. mesenteric inflammatory mediators. The rats were fasted for 18 hours where after they were given BCTC at 15 mg/kg (n=10) or vehicle (n=9) orally by gavage. One hour after treatment, the rats were anaesthetized in isoflurane and decapitated. The mesenteric adipose tissue was quickly removed and transferred to 10× volume pre-chilled RNAlater (Sigma-Aldrich, USA) and stored at −20° C. To prevent area to area effect on gene expressions patterns, 0, 5-1 g tissue was homogenized in TRIzol Reagent (1 ml/100 mg tissue) (TRIzol; Invitrogen Corp.). […] PCR amplification mixtures (25 μl) contained 12.5 μl of 2× Platinum Quantitative PCR SuperMix-UDG (Invitrogen Corp.), 0.625 μl of reverse primer (20 μM), 0.625 μl forward primers (20 μM), 0.625 μl Probe (10 μM) (ProbeLibrary Exiqon A/S, Denmark) and 5 μl diluted cDNA template. Real-time quantitative PCR was carried out using MX3000P PCR machine (Stratagene, USA) with the following cycling parameters: polymerase activation for 10 minutes at 95° C. and amplification for 40 cycles of 30 seconds at 95° C. and 60 seconds at 60° C. […]
(§2) Relative gene expression of iNOS and F4/80 were determined by quantitative RT-PCR comparative Ct method (Applied Biosystems. User Bulletin #2. ABI PRISM 7700 sequence detection system, 1997) using vehicle as calibrator. […]

Assay [2] has as its target T1, capsaicin receptor (Rattus norvegicus, UniProt O35433).
T1 construct: host or cells: whole animal (in vivo pain models)
Conditions: literature refs 22, 23; cited from earlier work.

Assay [3] has as its system F4/80. Put plainly: Relative gene expression of F4/80 in mesenteric adipose tissue (quantitative RT-PCR). It is filed as in vivo, rat. Conditions: 9 month old Zucker obese rats; 1 hour after BCTC 15 mg/kg po; vehicle as calibrator, 36B4 internal standard. As to the method: as §1, §2
The test system of assay [4] is male Zucker obese rats. The experiment in a line: Oral glucose tolerance test (OGTT) and glucose stimulated insulin secretion after oral BCTC. It is filed as in vivo, rat. Conditions: 6 month old male Zucker obese rats; BCTC 15 mg/kg p.o. at -30 min; glucose 2 g/kg po at time 0; vs vehicle. The source says: Laboratory animals: Male (n=19) Zucker obese rats were purchased from Charles River Laboratories, U.S. The rats were transported to Denmark at the age of 6 weeks and were kept under ambient controlled conditions on a normal day light cycle (lights on at 6 am, lights off at 6 pm) at the Måløv Animal Unit at Novo Nordisk A/S, Denmark from then and until the age of 9 month of age. The rats were kept in groups of 3 rats per cage until the end of the experiment in standard cages (Eurostandard Type IV, Techniplast, Scanbur, Denmark) and were given free access to acidified (0.4% citric acid) tap water and standard chow (Altromin, Brogaarden Aps, Denmark). The cages were supplied with wooden wool (Brogaarden, Denmark) as nesting material and the bedding material was aspen chips (Brogaarden, Denmark), changed twice per week as was the bottles of acidified water.
At 6 month of age, an OGTT was performed shortly after administering a capsaicin receptor antagonist (BCTC) orally. […] Fasting blood glucose and plasma insulin was determined as described below. […] The rats were left in the cage until time 0 where blood glucose was assessed followed by the OGTT. […] Blood glucose and plasma insulin was determined at time 30, 60 and 120 min after glucose. […] Following the experiment, glucose was determined using the glucose oxidase method (EBIO, Eppendorf, Germany). […]

T1 sequence (O35433 whole entry): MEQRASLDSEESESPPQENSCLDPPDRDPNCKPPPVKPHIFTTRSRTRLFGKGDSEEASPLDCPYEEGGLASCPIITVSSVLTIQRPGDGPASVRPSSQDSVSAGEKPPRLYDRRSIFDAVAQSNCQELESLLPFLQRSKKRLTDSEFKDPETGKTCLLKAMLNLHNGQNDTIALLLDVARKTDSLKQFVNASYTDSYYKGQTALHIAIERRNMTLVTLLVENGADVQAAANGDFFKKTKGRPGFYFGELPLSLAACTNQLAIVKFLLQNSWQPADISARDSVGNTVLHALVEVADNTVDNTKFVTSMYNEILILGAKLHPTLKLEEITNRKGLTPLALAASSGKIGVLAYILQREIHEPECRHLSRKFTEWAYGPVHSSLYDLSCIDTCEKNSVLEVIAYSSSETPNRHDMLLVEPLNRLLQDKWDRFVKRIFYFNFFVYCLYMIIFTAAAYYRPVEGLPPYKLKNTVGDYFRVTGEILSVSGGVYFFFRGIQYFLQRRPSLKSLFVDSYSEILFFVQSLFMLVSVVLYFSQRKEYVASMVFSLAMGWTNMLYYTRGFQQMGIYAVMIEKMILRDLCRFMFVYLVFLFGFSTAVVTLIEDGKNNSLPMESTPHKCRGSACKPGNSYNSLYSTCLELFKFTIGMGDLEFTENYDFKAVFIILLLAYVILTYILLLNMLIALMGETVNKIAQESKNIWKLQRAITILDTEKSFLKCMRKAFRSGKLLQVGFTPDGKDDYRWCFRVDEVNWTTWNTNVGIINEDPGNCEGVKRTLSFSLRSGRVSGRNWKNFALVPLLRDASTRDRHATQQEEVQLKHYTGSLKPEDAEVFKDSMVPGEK

With `CC(C)(C)c1ccc(NC(=O)N2CCN(c3ncccc3Cl)CC2)cc1` [BCTC, N-(4-tertiarybutylphenyl)-4-(3-chloropyridin-2-yl)tetrahydropyrazine-1(2H)-carbox-amide], in assay [1], the “gene expression of iNOS in mesenteric adipose tissue” value is listed as “significantly lower level”. Also, the “inhibiting capsaicin-mediated hyperalgesia, inflammatory hyperalgesia or allodynia, and hyperalgesia after nerve injury” value in assay [2] is reported as “shown effective”. In assay [3], the “gene expression of F4/80 in mesenteric adipose tissue” value is on record as “significantly lower level”. In assay [4], the “blood glucose after oral glucose tolerance test” value is reported as “diminished rise in blood glucose” and the “plasma insulin after oral glucose load (glucose stimulated insulin response)” value was “considerable higher levels of insulin in plasma”.
